Data: article PMC7160231, “Identification and Immobilization of an Invertase With High Specific Activity and Sucrose Tolerance Ability of Gongronella sp. w5 for High Fructose Syrup Preparation” (Frontiers in Microbiology, 2020)

Legend:
CBM24DG-GspInv = test system: T1, CBM24DG-GspInv; test: initial rate, released glucose by glucose oxidase method, Michaelis-Menten fit; type: biochemical, Gongronella sp. w5; details: 50 mM citrate-phosphate pH 5.0, 45°C, 1 mM-2 M sucrose; free (not immobilised) fusion enzyme
T1 construct: Clostridium thermocellum CBM24 fused to N-terminus of GspInv; secreted from K. pastoris GS115 (pPIC9K)
Description: initial rate, released glucose by glucose oxidase method, Michaelis-Menten fit on CBM24DG-GspInv

GspInv = test system: T2, GspInv; test: as above; type: biochemical, Gongronella sp. w5; details: 50 mM citrate-phosphate pH 5.0, 45°C, 1 mM-2 M sucrose
T2 construct: secreted from Komagataella (Pichia) pastoris GS115 with alpha-factor signal of pPIC9K; cDNA 1,761 bp; primer-encoded N-terminus MVLADP, C-terminus FNRP; catalytic D46, D173, E251
Description: initial rate, released glucose by glucose oxidase method, Michaelis-Menten fit on GspInv

Km (CBM24DG-GspInv): 10.3 ± 1.2 mM
Km (GspInv): 8.7 ± 1.1 mM
Compound: OC[C@H]1O[C@@](CO)(O[C@H]2O[C@H](CO)[C@@H](O)[C@H](O)[C@H]2O)[C@@H](O)[C@@H]1O [sucrose]
